Experimental data taken from PubChem BioAssay AID1626 (SRMLSC, 2009).

Tested on: M. tuberculosis H37Rv growth inhibition
Assay: M. tuberculosis H37Rv growth inhibitors, H37Rv strain (AID 1626)
Conditions: for IC90: measured here: IC90 against H37Rv; for CC50: measured here: Vero cell cytotoxicity

O=S1(=O)C=C(Sc2nc3cc(Cl)ccc3o2)c2ccccc21
IC50: 2.9 µM | IC90: 3.18 µM | CC50: 16.1 µM

COC(=O)c1nc(-c2ccc3c(n2)C(=O)C(N)=C(OC)C3=O)c(N)c(-c2ccc(OC)c(OC)c2O)c1C
IC90: > 100 µM | CC50: 1.35 µM

COc1ccc(C[C@H]2CN3C(=NC[C@H]3Cc3ccccc3)N2CCNC(=O)CCC2CCCCC2)cc1
IC50: 10.9 µM | IC90: 12.3 µM | CC50: 29 µM

CCOc1ccc(OCC)c(NC(=O)CN2CCN(c3cc(C)ccc3C)CC2)c1
IC90: > 100 µM | CC50: > 40 µM

N=C1S/C(=C\c2ccco2)C(=O)N1c1nccs1
IC50: < 0.195 µM | IC90: < 0.195 µM | CC50: 22.5 µM

Nc1ccc(C(=O)O)c(O)c1
IC50: < 0.195 µM | IC90: > 100 µM

CCOc1ccc(NCC(=O)Nc2ccc(Cl)cc2C)cc1
IC50: 8.53 µM | IC90: > 100 µM

COc1cccc(C(=O)Nc2ccc3nc(N4CCN(c5ncccn5)CC4)cc(C)c3c2)c1OC
IC50: < 0.195 µM | IC90: 1.72 µM | CC50: 15.2 µM

CC(=O)n1cc(N(C(=O)CCl)c2ccc(Cl)cc2)c2ccccc21
IC50: 8.88 µM | IC90: 19.6 µM | CC50: 0.662 µM

Cc1ccc(NC(=O)COC(=O)CC2CCCC2)cc1Cl
IC90: > 100 µM

O=c1[nH]c2ccccc2n1CCCN1CCN(C(c2ccccc2)c2ccccc2)CC1
IC50: 17.1 µM | IC90: 25.3 µM | CC50: > 40 µM

O=C(Oc1ccc(-c2cnc3ccccc3n2)cc1)c1ccc(Cl)c([N+](=O)[O-])c1
IC50: 5.25 µM | IC90: 23.4 µM

Cc1cc2oc3c(c(=O)c2cc1C)C(c1cccc(Br)c1)N(Cc1ccco1)C3=O (configuration not stated)
IC50: 5.92 µM | IC90: > 100 µM | CC50: 13.9 µM

CCCn1c(NC(=O)C23CC4CC(CC(O)(C4)C2)C3)nc2ccccc21
IC50: 11.1 µM | IC90: > 100 µM | CC50: > 40 µM

O=C(CSc1ncnc2c1oc1ccccc12)OCc1ccccc1
IC50: 7.79 µM | IC90: 26.8 µM

COc1ccc(CN2CCN(CC(O)Cn3c4ccccc4c4ccccc43)CC2)cc1 (configuration not stated)
IC50: 5.34 µM | IC90: 8.3 µM | CC50: 15 µM

COc1ccc(OC(=O)CCc2c[nH]c3ccccc23)cc1
IC50: 18.2 µM | IC90: > 100 µM

O=C(Nc1nnc(-c2ccccc2)o1)c1cc(Cl)sc1Cl
IC50: 2.4 µM | IC90: > 100 µM | CC50: > 40 µM

O=C(/C=C/c1cccnc1)/C=C/c1cccnc1
IC50: 0.909 µM | IC90: 1.33 µM | CC50: 3.09 µM

Cc1ccc(Cl)cc1NC1=C/C(=N\S(=O)(=O)c2cccs2)c2ccccc2C1=O
IC50: 1.91 µM | IC90: 3.21 µM | CC50: 5.83 µM

O=C(Nc1ccc(-c2nc3ccccc3c(=O)o2)cc1)c1ccco1
IC50: < 0.195 µM | IC90: > 100 µM

Nc1c(C(=O)NCc2ccccc2)c2nc3ccccc3nc2n1CCCN1CCOCC1
IC50: 12.7 µM | IC90: 17.1 µM | CC50: > 40 µM

COc1ccc(OC)c(C2C3=C(N=c4s/c(=C\c5cccc(O)c5)c(=O)n42)c2ccccc2CC3)c1 (configuration not stated)
IC50: 11.1 µM | IC90: > 100 µM | CC50: 19.9 µM

C=CCOc1ccc(C=Nc2ccc(OC)cc2)c(O)c1
IC90: > 100 µM

O=C(Nc1nnc(-c2ccccn2)o1)c1cccc(Br)c1
IC50: 12.4 µM | IC90: > 100 µM | CC50: > 40 µM

C=CCn1c(SCc2ccc(C(=O)Nc3nccs3)cc2)nnc1-c1ccc(C)c(Cl)c1
IC50: 6.82 µM | IC90: 17.6 µM | CC50: 32.9 µM

CCOC(=O)c1cc(-c2csc(-c3ccc(C(F)(F)F)cc3)n2)on1
IC50: < 0.195 µM | IC90: 3.33 µM

Cc1nn2c(NCCCn3ccnc3)cc(C(C)C)nc2c1-c1ccccc1
IC50: 7.66 µM | IC90: 11.9 µM | CC50: 26.4 µM

Cc1cc(C)cc(OCc2nnc(SCC(=O)OC(C)C)o2)c1
IC90: > 100 µM

COc1cc(/C=C/C(=O)c2cccc([N+](=O)[O-])c2)cc(OC)c1OC
IC50: 3.77 µM | IC90: 11.2 µM | CC50: 18.5 µM

CN(C)c1ccc(C(=O)Nc2nnc(-c3ccc(Cl)cc3)o2)cc1
IC50: 0.895 µM | IC90: > 100 µM | CC50: > 40 µM

Cc1scc(C(=O)NCc2ccco2)c1-c1ccccc1
IC50: 2.81 µM | IC90: 9.77 µM

c1ccc(Nc2nc(-c3ccccn3)cs2)cc1
IC50: 0.376 µM | IC90: 0.854 µM | CC50: > 40 µM

CC1(C)C2CCC1(C)C(NC(=O)/C=C/c1ccccc1)C2 (configuration not stated)
IC50: < 0.195 µM | IC90: 18.1 µM | CC50: > 40 µM

O=Cc1ccc2oc3nc4n(c(=O)c3c(=O)c2c1)CCCS4
IC50: 0.441 µM | IC90: 1.24 µM

Nc1c(C(=O)NC2CCCCC2)nsc1C(=O)OCC(=O)NC1CCCCC1
IC50: 2.04 µM | IC90: > 100 µM | CC50: > 40 µM

O=C(Nc1nc2ccccc2[nH]1)c1cc2ccccc2o1
IC50: 37.2 µM | IC90: > 100 µM | CC50: > 40 µM

N#C/C(=C/c1ccc(N2CCCCC2)o1)C(=O)NCCc1c[nH]c2ccccc12
IC50: 41 µM | IC90: > 100 µM | CC50: > 40 µM

CNc1nc(SC)nc2ccsc12
IC50: 5.66 µM | IC90: 15.2 µM

COc1ccc(/C=C2\COc3ccccc3C2=O)cc1OC
IC50: 9.44 µM | IC90: 14.6 µM | CC50: 29.2 µM
